Assay results taken from publication PMC9097471, “Development of Selective Phosphatidylinositol 5-Phosphate 4-Kinase γ Inhibitors with a Non-ATP-competitive, Allosteric Binding Mode” (Journal of Medicinal Chemistry, 2022).
Each block holds one compound with its values, some of them ahead of it.

How the values were obtained:
PI5P4Kα = target: T1, PI5P4Kα (Homo sapiens, UniProt P48426); assay: Thermal shift assay; conditions: read-out: ΔTm PI5P4Kα, thermal shift, compound 63 μM
T1 sequence (P48426 1-406): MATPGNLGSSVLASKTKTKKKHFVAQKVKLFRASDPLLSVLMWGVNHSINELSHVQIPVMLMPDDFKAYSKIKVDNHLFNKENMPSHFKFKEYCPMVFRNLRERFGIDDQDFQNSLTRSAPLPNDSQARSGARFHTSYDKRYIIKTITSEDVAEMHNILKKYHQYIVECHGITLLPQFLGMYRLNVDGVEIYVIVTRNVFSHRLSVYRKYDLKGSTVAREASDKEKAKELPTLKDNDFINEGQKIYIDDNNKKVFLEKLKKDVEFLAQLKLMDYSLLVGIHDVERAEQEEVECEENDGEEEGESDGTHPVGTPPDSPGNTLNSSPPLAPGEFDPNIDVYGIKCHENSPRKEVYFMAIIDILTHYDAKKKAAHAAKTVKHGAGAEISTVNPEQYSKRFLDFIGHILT

PINK = PINK (Tribolium castaneum, UniProt D6WMX4); assay: biochemical; conditions: read-out: % activity remaining
ERK1 = ERK1 (Homo sapiens, UniProt P27361); assay: Kinase panel, radiometric 33P filter binding; conditions: read-out: % activity remaining
ERK2 = ERK2 (Homo sapiens, UniProt P28482); assay: Kinase panel, radiometric 33P filter binding; conditions: read-out: % activity remaining
From the text: (§1) filter binding assay using 33P-g-ATPat the MRC PPU International Centre for Kinase Profiling, University of

PDK1 = PDK1 (Homo sapiens, UniProt O15530); assay: Kinase panel, radiometric 33P filter binding; conditions: read-out: % activity remaining
From the text: as §1

PKBa = PKBa (Homo sapiens, UniProt P31749); assay: Kinase panel, radiometric 33P filter binding; conditions: read-out: % activity remaining
From the text: as §1

PKBb = PKBb (Homo sapiens, UniProt P31751); assay: Kinase panel, radiometric 33P filter binding; conditions: read-out: % activity remaining
From the text: as §1

PRK2 = PRK2 (Homo sapiens, UniProt Q16513); assay: Kinase panel, radiometric 33P filter binding; conditions: read-out: % activity remaining
From the text: as §1

PKCz = PKCz (Homo sapiens, UniProt Q05513); assay: Kinase panel, radiometric 33P filter binding; conditions: read-out: % activity remaining
From the text: as §1

PKD1 = PKD1 (Homo sapiens, UniProt Q15139); assay: Kinase panel, radiometric 33P filter binding; conditions: read-out: % activity remaining
PKD1, sequence (Q15139 whole entry): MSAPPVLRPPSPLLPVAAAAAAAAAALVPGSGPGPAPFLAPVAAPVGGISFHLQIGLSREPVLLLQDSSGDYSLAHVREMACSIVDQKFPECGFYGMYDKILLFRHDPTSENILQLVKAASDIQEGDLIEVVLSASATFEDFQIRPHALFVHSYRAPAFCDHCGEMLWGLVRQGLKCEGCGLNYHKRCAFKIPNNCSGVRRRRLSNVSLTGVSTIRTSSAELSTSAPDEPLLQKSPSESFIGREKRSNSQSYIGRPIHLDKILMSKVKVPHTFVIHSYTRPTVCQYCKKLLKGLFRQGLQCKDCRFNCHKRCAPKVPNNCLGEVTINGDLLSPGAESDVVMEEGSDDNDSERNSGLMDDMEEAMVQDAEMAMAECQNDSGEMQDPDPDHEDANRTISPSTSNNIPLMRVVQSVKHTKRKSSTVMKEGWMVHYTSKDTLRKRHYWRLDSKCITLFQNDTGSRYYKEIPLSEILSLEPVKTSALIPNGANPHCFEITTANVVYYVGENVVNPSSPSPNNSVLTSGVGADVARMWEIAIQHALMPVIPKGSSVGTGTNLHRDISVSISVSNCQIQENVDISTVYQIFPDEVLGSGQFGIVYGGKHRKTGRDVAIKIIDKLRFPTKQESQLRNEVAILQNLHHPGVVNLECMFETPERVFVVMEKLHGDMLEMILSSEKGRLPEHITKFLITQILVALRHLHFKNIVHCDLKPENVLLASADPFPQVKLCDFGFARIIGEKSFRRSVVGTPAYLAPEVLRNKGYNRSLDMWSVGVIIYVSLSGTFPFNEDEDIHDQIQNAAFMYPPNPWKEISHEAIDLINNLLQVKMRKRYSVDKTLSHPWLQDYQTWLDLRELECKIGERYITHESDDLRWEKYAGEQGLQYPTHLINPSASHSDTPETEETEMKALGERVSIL
From the text: as §1

CHK1 = CHK1 (Homo sapiens, UniProt O14757); assay: Kinase panel, radiometric 33P filter binding; conditions: read-out: % activity remaining
From the text: as §1

MARK2 = MARK2 (Homo sapiens, UniProt Q7KZI7); assay: Kinase panel, radiometric 33P filter binding; conditions: read-out: % activity remaining
From the text: as §1

BRSK2 = BRSK2 (Homo sapiens, UniProt Q8IWQ3); assay: Kinase panel, radiometric 33P filter binding; conditions: read-out: % activity remaining
From the text: as §1
Kinase % activity remaining s.d.

MELK = MELK (Homo sapiens, UniProt Q14680); assay: Kinase panel, radiometric 33P filter binding; conditions: read-out: % activity remaining
From the text: as §1
Kinase % activity remaining s.d.

NUAK1 = NUAK1 (Homo sapiens, UniProt O60285); assay: Kinase panel, radiometric 33P filter binding; conditions: read-out: % activity remaining
NUAK1, sequence (O60285 whole entry): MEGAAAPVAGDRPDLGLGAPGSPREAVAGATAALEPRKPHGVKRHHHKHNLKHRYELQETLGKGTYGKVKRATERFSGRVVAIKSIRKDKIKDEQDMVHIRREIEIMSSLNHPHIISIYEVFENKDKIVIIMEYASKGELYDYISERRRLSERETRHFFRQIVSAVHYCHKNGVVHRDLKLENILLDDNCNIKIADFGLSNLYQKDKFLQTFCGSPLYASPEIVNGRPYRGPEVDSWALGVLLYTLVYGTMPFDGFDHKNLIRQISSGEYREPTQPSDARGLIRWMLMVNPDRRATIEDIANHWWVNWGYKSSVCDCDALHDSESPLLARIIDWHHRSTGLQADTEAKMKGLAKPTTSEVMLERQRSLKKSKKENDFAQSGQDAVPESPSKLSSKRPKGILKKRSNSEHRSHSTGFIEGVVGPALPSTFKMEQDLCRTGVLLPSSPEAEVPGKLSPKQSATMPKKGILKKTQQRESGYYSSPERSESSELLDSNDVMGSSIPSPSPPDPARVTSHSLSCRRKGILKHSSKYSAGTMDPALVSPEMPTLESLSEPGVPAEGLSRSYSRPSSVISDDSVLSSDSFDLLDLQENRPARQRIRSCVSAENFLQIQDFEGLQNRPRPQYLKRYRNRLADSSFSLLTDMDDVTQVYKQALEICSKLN
From the text: as §1
Kinase % activity remaining s.d.

SIK3 = SIK3 (Homo sapiens, UniProt Q9Y2K2); assay: Kinase panel, radiometric 33P filter binding; conditions: read-out: % activity remaining
From the text: as §1
Kinase % activity remaining s.d.

TSSK1 = TSSK1 (Homo sapiens, UniProt Q9BXA7); assay: Kinase panel, radiometric 33P filter binding; conditions: read-out: % activity remaining
From the text: as §1

DYRK3 = DYRK3 (Homo sapiens, UniProt O43781); assay: Kinase panel, radiometric 33P filter binding; conditions: read-out: % activity remaining
From the text: as §1

PIM1 = PIM1 (Homo sapiens, UniProt P11309); assay: Kinase panel, radiometric 33P filter binding; conditions: read-out: % activity remaining
From the text: as §1
Kinase % activity remaining s.d.

HIPK1 = HIPK1 (Homo sapiens, UniProt Q86Z02); assay: Kinase panel, radiometric 33P filter binding; conditions: read-out: % activity remaining
From the text: as §1

HIPK2 = HIPK2 (Homo sapiens, UniProt Q9H2X6); assay: Kinase panel, radiometric 33P filter binding; conditions: read-out: % activity remaining
HIPK2, sequence (Q9H2X6 whole entry): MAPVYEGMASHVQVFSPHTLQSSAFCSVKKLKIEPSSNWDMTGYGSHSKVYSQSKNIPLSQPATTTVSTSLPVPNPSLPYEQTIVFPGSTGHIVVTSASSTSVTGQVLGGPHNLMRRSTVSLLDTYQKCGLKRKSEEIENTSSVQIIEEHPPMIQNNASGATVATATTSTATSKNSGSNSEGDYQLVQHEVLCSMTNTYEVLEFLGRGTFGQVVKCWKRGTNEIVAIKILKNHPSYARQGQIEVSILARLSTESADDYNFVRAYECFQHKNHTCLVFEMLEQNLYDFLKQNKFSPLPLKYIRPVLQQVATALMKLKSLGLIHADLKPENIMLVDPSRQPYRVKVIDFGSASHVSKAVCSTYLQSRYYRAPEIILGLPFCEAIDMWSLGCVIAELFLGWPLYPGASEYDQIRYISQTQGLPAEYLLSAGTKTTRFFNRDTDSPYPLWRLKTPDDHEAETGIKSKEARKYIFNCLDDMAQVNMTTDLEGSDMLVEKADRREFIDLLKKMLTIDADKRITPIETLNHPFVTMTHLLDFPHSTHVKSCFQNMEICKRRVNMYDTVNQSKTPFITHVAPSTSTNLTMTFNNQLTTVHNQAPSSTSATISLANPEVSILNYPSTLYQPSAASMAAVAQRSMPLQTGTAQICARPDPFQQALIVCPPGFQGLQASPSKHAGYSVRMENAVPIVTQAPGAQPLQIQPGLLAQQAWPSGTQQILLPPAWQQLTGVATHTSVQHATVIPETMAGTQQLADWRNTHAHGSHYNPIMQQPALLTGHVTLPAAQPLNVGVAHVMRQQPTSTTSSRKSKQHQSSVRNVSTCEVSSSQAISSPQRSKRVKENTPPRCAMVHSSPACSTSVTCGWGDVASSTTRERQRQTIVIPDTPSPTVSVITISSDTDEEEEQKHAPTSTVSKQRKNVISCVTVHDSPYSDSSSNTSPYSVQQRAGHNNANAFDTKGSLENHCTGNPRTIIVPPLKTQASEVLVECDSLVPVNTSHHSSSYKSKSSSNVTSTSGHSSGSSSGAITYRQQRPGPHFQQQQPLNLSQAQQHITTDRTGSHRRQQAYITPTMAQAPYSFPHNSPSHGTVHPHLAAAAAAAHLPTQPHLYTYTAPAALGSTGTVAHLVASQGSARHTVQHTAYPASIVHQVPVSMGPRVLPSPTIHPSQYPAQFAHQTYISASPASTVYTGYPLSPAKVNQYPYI
From the text: as §1

GCK = GCK (Homo sapiens, UniProt Q12851); assay: Kinase panel, radiometric 33P filter binding; conditions: read-out: % activity remaining
GCK, sequence (Q12851 whole entry): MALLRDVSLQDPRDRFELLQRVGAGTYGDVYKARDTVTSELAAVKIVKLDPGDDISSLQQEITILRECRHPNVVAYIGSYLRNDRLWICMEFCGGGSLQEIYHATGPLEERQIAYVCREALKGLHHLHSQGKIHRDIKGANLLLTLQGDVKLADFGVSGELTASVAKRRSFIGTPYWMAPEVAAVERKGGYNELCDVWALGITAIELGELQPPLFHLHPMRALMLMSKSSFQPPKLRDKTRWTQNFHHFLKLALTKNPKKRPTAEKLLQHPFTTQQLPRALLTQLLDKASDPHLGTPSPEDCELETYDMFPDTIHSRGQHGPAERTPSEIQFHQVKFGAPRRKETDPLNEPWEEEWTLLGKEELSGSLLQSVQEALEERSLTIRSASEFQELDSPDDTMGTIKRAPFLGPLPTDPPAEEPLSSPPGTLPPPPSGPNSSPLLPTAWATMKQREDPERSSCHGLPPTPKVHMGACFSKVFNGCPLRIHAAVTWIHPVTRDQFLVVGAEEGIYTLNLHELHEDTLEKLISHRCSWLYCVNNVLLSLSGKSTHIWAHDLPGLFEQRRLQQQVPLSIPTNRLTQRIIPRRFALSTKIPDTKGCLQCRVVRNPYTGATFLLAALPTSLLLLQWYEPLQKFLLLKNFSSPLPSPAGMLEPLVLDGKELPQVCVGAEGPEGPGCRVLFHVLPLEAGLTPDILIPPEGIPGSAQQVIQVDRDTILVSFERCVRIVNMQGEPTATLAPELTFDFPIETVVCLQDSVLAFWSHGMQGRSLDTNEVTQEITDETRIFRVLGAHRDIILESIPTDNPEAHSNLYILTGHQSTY
From the text: as §1

MAP4K5 = MAP4K5 (Homo sapiens, UniProt Q9Y4K4); assay: Kinase panel, radiometric 33P filter binding; conditions: read-out: % activity remaining
From the text: as §1

ASK1 = ASK1 (Homo sapiens, UniProt Q99683); assay: Kinase panel, radiometric 33P filter binding; conditions: read-out: % activity remaining
From the text: as §1

OSR1 = OSR1 (Homo sapiens, UniProt O95747); assay: Kinase panel, radiometric 33P filter binding; conditions: read-out: % activity remaining
TGFBR1 = TGFBR1 (Homo sapiens, UniProt P36897); assay: Kinase panel, radiometric 33P filter binding; conditions: read-out: % activity remaining
TGFBR1, sequence (P36897 34-503): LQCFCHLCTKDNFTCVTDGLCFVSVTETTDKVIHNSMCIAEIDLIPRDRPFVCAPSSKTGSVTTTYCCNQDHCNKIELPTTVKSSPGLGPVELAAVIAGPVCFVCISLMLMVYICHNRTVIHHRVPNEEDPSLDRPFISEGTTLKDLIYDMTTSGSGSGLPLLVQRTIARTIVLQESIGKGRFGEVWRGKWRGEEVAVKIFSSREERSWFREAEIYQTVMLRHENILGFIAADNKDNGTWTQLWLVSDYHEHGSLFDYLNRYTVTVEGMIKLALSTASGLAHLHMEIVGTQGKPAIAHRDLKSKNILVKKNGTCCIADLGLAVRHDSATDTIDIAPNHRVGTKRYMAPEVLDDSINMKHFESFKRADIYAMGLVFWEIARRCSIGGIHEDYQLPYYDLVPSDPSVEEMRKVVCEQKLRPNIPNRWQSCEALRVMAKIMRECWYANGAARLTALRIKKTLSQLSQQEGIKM

CSK = CSK (Homo sapiens, UniProt P41240); assay: Kinase panel, radiometric 33P filter binding; conditions: read-out: % activity remaining
YES1 = YES1 (Homo sapiens, UniProt P07947); assay: Kinase panel, radiometric 33P filter binding; conditions: read-out: % activity remaining
SYK = SYK (Homo sapiens, UniProt P43405); assay: Kinase panel, radiometric 33P filter binding; conditions: read-out: % activity remaining
EPH-A4 = EPH-A4 (Homo sapiens, UniProt P54764); assay: Kinase panel, radiometric 33P filter binding; conditions: read-out: % activity remaining
From the text: as §1

EPH-B3 = EPH-B3 (Homo sapiens, UniProt P54753); assay: Kinase panel, radiometric 33P filter binding; conditions: read-out: % activity remaining
EPH-B3, sequence (P54753 34-998): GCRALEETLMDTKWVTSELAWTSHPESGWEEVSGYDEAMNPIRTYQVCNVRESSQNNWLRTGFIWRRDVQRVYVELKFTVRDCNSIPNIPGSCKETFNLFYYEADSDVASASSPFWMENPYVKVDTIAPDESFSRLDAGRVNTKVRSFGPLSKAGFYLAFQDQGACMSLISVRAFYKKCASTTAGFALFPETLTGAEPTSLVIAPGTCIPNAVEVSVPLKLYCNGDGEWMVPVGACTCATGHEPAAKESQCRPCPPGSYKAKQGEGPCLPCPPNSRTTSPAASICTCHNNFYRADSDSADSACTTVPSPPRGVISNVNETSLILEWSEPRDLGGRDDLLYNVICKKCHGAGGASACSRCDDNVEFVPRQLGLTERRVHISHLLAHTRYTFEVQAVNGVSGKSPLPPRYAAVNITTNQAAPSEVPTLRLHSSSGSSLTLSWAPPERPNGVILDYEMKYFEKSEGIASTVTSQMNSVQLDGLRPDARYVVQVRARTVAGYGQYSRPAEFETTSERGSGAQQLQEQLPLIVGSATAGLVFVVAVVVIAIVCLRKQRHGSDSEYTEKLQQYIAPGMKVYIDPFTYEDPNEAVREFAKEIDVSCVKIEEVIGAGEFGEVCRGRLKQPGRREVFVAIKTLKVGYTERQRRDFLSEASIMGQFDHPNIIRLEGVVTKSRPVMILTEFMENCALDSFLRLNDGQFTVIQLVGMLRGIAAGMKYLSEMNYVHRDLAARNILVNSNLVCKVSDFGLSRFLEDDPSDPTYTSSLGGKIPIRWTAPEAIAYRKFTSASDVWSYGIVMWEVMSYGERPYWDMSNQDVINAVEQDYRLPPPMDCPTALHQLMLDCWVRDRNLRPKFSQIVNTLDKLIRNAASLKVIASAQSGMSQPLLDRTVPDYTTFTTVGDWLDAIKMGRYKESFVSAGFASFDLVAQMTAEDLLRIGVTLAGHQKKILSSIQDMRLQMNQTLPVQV
From the text: as §1

IRR = IRR (Homo sapiens, UniProt P14616); assay: Kinase panel, radiometric 33P filter binding; conditions: read-out: % activity remaining
From the text: as §1

VEG-FR = VEG-FR (Homo sapiens, UniProt P17948); assay: Kinase panel, radiometric 33P filter binding; conditions: read-out: % activity remaining
From the text: as §1

ΔTm at 63 µM (PI5P4Kα): -0.2 ± 0.4 °C
Structure (SMILES): FC(F)(F)c1ccccc1-c1nc(NCc2cccs2)c2ccccc2n1 [Compound 1, NIH-12848, reference compound]

Structure (SMILES): CC(C)c1ccccc1-c1nc(NCc2ccccn2)c2c(ccn2C)n1 [Compound 40]
remaining activity at 10 µM (PINK): 125% | remaining activity at 10 µM (ERK1): 111% | remaining activity at 10 µM (ERK2): 98% | remaining activity at 10 µM (PDK1): 103% | remaining activity at 10 µM (PKBa): 103% | remaining activity at 10 µM (PKBb): 75% | remaining activity at 10 µM (PRK2): 83% | remaining activity at 10 µM (PKCz): 111% | remaining activity at 10 µM (PKD1): 109% | remaining activity at 10 µM (CHK1): 96% | remaining activity at 10 µM (MARK2): 101% | remaining activity at 10 µM (BRSK2): 83% | remaining activity at 10 µM (MELK): 95% | remaining activity at 10 µM (NUAK1): 88% | remaining activity at 10 µM (SIK3): 111% | remaining activity at 10 µM (TSSK1): 96% | remaining activity at 10 µM (DYRK3): 128% | remaining activity at 10 µM (PIM1): 102% | remaining activity at 10 µM (HIPK1): 104% | remaining activity at 10 µM (HIPK2): 114% | remaining activity at 10 µM (GCK): 93% | remaining activity at 10 µM (MAP4K5): 112% | remaining activity at 10 µM (ASK1): 116% | remaining activity at 10 µM (OSR1): 120% | remaining activity at 10 µM (TGFBR1): 91% | remaining activity at 10 µM (CSK): 94% | remaining activity at 10 µM (YES1): 115% | remaining activity at 10 µM (SYK): 91% | remaining activity at 10 µM (EPH-A4): 96% | remaining activity at 10 µM (EPH-B3): 105% | remaining activity at 10 µM (IRR): 99% | remaining activity at 10 µM (VEG-FR): 125%
